These results are taken from PubChem BioAssay AID179 (DTP/NCI, 2004).

The test system of the test is CEM cells HIV-1 protection, formazan growth assay. Put plainly: NCI AIDS Antiviral Assay. To be noted: for IC50: measured here: growth of uninfected CEM cells. In short, it runs like this: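 Human CEM cells, uninfected and HIV-1-infected, received five drug concentrations, and growth was read by soluble formazan assay. Compounds giving at least 50% protection were retested; reproducible 100% protection defined confirmed active.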

Each structure is given as a SMILES string. “And” between values parts separate entries of the source, which are not always exact repeats. Identical values can stand only once. The source made the active and inactive calls.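 How the source made its calls: active means compounds giving half or more protection of infected cells from virus-caused growth loss, again on retest; inactive means the rest.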 Where a SMILES comes first, the peptide text is derived from it. The star is where a group is joined. Cbz = O=C(OCc1ccccc1)* Where only a bound is given, the exact number is not on record here.

For `O=c1c(Cl)c2cc3c(cc2c2ccccc12)nc1cccnc1n3C1CCCCC1`, the EC50 was over 39.8 µM and the IC50 is over 39.8 µM. Take `S=C1N(c2ccc(Br)cc2)C2=Nc3ccccc3SC(=C2N=Nc2ccc(Br)cc2)N1c1ccc(Cl)cc1`: the EC50 is over 32.4 µM and the IC50 came out at 6.17 µM. The like results for `O=C(NC12CC3CC(NC(=O)c4ccccc4)(CC(C1)c1ccccc13)C2)c1ccccc1` were, in that order, over 12 µM and over 12 µM. The like results for `NC(=S)NC/C=C/Cl` were, in that order, over 200 µM and over 200 µM. The like results for `NCCCCC(=O)NC(CCCCNC(=O)OCc1ccccc1)C(=O)NCCCCC(=O)NC(CCCCNC(=O)OCc1ccccc1)C(=O)NCCCCC(=O)NC(CCCCNC(=O)OCc1ccccc1)C(=O)NCCCCC(=O)NC(CCCCNC(=O)OCc1ccccc1)C(=O)NCCCCC(=O)NC(CCCCNC(=O)OCc1ccccc1)C(=O)NCCCCC(=O)NC(CCCCNC(=O)OCc1ccccc1)C(=O)NCCCCC(=O)NC(CCCCNC(=O)OCc1ccccc1)C(=O)O` (stereo not drawn) were, in that order, over 7.08 µM and over 7.08 µM.

As for `COc1ccc(OC)c2c(C(=O)O)c(Cc3ccccc3)ccc12`, the result was inactive. As to `CC1=C(C(=O)Nc2ccc([N+](=O)[O-])cc2)C(c2ccccc2O)C(C(=O)Nc2ccc([N+](=O)[O-])cc2)=C(C)N1`, the EC50 is over 49 µM and the IC50 turned out to be 30.9 µM.

`Cn1cc(NC(=O)c2cc(NC(=O)CCCCCCCCCCC(=O)Nc3cc(C(=O)Nc4cc(C(=O)NCCC(=N)N)n(C)c4)n(C)c3)cn2C)cc1C(=O)NCCC(=N)N`: the concentration giving a half-maximal response (EC50) is 4.07 µM and the 50% inhibitory concentration (IC50) turned out to be 7.76 µM. Turning to `COc1ccc(OC)c(NCC(=O)Nn2cnc3ccc(S(=O)(=O)Nc4cc(OC)ccc4OC)cc3c2=O)c1`, the EC50 is over 200 µM and the concentration for half-maximal inhibition (IC50) is 33.9 µM. The like results for `COC(=O)c1cc(C(=CCC23CC4CC(CC(C4)C2)C3)c2cc(Cl)c(OC)c(C(=O)OC)c2)cc(Cl)c1OC` were, in that order, over 17.4 µM and over 17.4 µM. The like results for `N#CCN1CCCCCC1` were, in that order, over 200 µM and over 200 µM.

On to `C1COC(N2CC3CCC(CC3)C2)=N1`, for which the EC50 was over 200 µM and the concentration for half-maximal inhibition (IC50) is over 200 µM. As to `CCOC(=O)CCC(NC(=O)OCc1ccccc1)C(=O)NC(CCC(=O)OCC)C(=O)OCC` (stereo not drawn) (Cbz-Glu(OEt)-Glu(OEt)-OEt; configuration not given here), the EC50 is over 200 µM and the IC50 was over 200 µM. Regarding `CC=CCOc1cc(NC(=S)OC(C)C)ccc1Cl` (mixture of isomers), the 50% effective concentration (EC50) was 0.126 µM and the 50% inhibitory concentration (IC50) is 24 µM. The matching figures for `CCOC(=O)C(O)(NC(=O)c1ccc(F)cc1)C(F)(F)F` (stereo not drawn): over 200 µM and over 200 µM. As for `CC(C)(C)OC(=O)Cn1ncn(NC(=O)Cc2ccccc2)c1=O`, the EC50 was over 200 µM and the concentration for half-maximal inhibition (IC50) was over 200 µM. In the case of `CCCCNS(=O)(=O)c1ccc(-c2ccc3c(c2)-c2ccc(S(=O)(=O)NCCCC)cc2S3(=O)=O)cc1`, the EC50 is over 12.9 µM and the concentration for half-maximal inhibition (IC50) was over 12.9 µM. On to `CN(c1ccccc1)C1C(=O)N(c2ccccc2)C1/C=C/c1ccccc1` (stereo not drawn), for which the outcome was inactive. As for `CCN(CC)CCOc1ccc(/C(C#N)=C/c2ccc(OCCO)cc2)cc1`, the EC50 was over 200 µM and the IC50 came out at 20.9 µM. The like results for `Cn1cc(NC(=O)c2cc(NC(=O)Nc3cc(C(=O)Nc4cc(C(=O)Nc5ccc6cc(S(=O)(=O)O)cc(S(=O)(=O)O)c6c5)n(C)c4)n(C)n3)nn2C)cc1C(=O)Nc1ccc2cc(S(=O)(=O)O)cc(S(=O)(=O)O)c2c1` were, in that order, 6.17 µM and over 100 µM.

As for `O=C1CCCC/C1=C/c1ccc(Cl)cc1`, the outcome was inactive. `Nc1cc(C(F)(F)F)ccc1S`: the EC50 is over 200 µM and the IC50 came to 22.9 µM.

Take `COc1c(Cl)cc(C(=CCCCC(=O)O)c2cc(Cl)c(OC)c(C(=O)O)c2)cc1C(=O)O`: the EC50 is over 200 µM and the IC50 was over 200 µM. With `O=C(O)CCCCCCCCC(=O)O`, the EC50 is over 178 µM and the concentration for half-maximal inhibition (IC50) was over 178 µM.

For `CCOC(=O)C(NC(=O)CC)(Nc1ccc(F)c(Cl)c1)C(F)(F)F` (stereo not drawn), the EC50 is over 200 µM and the IC50 is over 200 µM. For the molecule `CCC[n+]1nc2ccccc2c(=Nc2ccccc2[N+](=O)[O-])[n-]1`, the EC50 is over 23.4 µM and the concentration for half-maximal inhibition (IC50) was over 23.4 µM.

`CN(/N=N/N(C)c1ccccc1)c1ccccc1`: the EC50 was over 200 µM and the half-maximal inhibitory concentration (IC50) was over 200 µM. Regarding `Cc1cc2c(c(C(=O)NCCC(=O)O)c1)Oc1c(cc(C)cc1C(=O)NCCC(=O)O)S2`, the EC50 was over 200 µM and the IC50 was over 200 µM.

In the case of `CC12CCC3C4CCC(=O)C(CCC(=O)O)=C4CCC3(CO1)C2` (stereo not drawn), the EC50 was over 794 µM and the IC50 is over 794 µM. For `CC(C)C12NC(=O)NC(=O)N1CCS2` (stereo not drawn), the result was inactive. As for `CC/C=N\N=C(N)N`, the EC50 was over 200 µM and the concentration for half-maximal inhibition (IC50) is 30.2 µM. The like results for `CC1(C)Oc2ccc3c(=O)cc(-c4ccc(F)cc4)oc3c2C1C(=O)O` (stereo not drawn) were, in that order, over 200 µM and over 200 µM.

For `CCC1COS(=O)(=O)CS(=O)(=O)O1` (stereo not drawn), the EC50 is over 1070 µM and the half-inhibitory concentration (IC50) stood at 1020 µM. Take `CC(O)C(O)C(O)C(O)c1nc2ccccc2[nH]1` (stereo not drawn): the outcome was inactive. As for `CCN(CC)CCSc1c2cc(OC)ccc2nc2ccc(OC)cc12`, the EC50 is over 200 µM and the IC50 worked out at 2.95 µM. `CC(C)(C)c1cc(Cc2ccc(S(C)(=O)=O)cc2)c(O)c(C(C)(C)C)c1`: the outcome was inactive. `NS(=O)(=O)c1ccc(NC(=O)c2ccc3nc4ccccc4c(Nc4ccc(S(N)(=O)=O)cc4)c3c2)cc1`: the concentration for a half-maximal effect (EC50) was 67.6 µM and the 50% inhibitory concentration (IC50) was over 200 µM.

Regarding `CCOC(=O)NC(Nc1ccc(C(=O)OCC)cc1)(C(F)(F)F)C(F)(F)F`, the EC50 was over 200 µM and the IC50 came to 17 µM.

Take `Cc1cc(C)c2nccc(NCCCN(C)C)c2c1[N+](=O)[O-]`: the EC50 was over 200 µM and the concentration for half-maximal inhibition (IC50) is 42.7 µM. With `C=C(CS(=O)(=O)c1ccccc1)C(=O)OCC`, the result was inactive. Turning to `CN1C(=O)N(C)C(=O)C(Nc2ccc([N+](=O)[O-])cc2)(SCCO)C1=O`, the EC50 was 97.7 µM and the IC50 was found to be 363 µM. Take `C/C(O)=C/c1nc2ccccc2n2nnnc12`: the EC50 was over 110 µM and the IC50 was over 110 µM. Regarding `CN1CCN(CCCN2CC(=O)N3Cc4ccccc4CN3C(=O)C2)CC1`, the EC50 was over 200 µM and the half-maximal inhibitory concentration (IC50) is over 200 µM. Consider `Cc1cc(=O)[nH]c(NNC(C#N)c2cccc([N+](=O)[O-])c2)n1` (stereo not drawn), for which the EC50 is over 45.7 µM and the IC50 was over 45.7 µM. `O=c1oc2ccccc2n1P(=O)(N1CCOCC1)N1CCOCC1`: the EC50 is over 251 µM and the IC50 was over 251 µM. For the molecule `CNC(=O)N(CCC#N)CCCN(C(=O)N(C)C)c1ccccc1`, the EC50 is over 200 µM and the IC50 was over 200 µM.

As for `COc1ccc(/C=C2/Cc3cccc4c([N+](=O)[O-])ccc2c34)cc1`, the EC50 is over 100 µM and the IC50 is over 100 µM. As for `COS(=O)(=O)OCCC(NC(=O)OCc1ccccc1)C(=O)OCc1ccccc1` (stereo not drawn), the EC50 is over 83.2 µM and the half-maximal inhibitory concentration (IC50) is over 83.2 µM. Take `O=C(Nc1nnc(-c2ccccc2)s1)c1cc(=O)c2cc([N+](=O)[O-])ccc2o1`: the EC50 was over 200 µM and the IC50 is over 200 µM.

Consider `Cc1ccc(/C=C2\NC(=S)N(CN3CCOCC3)C2=O)cc1`, for which the EC50 is over 200 µM and the IC50 is 45.7 µM.

With `COc1cccc(C2C3=C(COC3=O)Oc3cc4c(cc32)OCO4)c1` (stereo not drawn), the EC50 is over 2 µM and the concentration for half-maximal inhibition (IC50) is 0.0851 µM. The matching figures for `COC(=O)C(Cc1cc(OC)c(OC)c(OC)c1)C(=O)OC`: over 302 µM and over 302 µM.

Take `N#CC1=C(c2ccccc2)OC2(N)OC(c3ccccc3)=C(C#N)C12C#N` (stereo not drawn): the outcome was inactive. On to `CC1=C(C(=O)CC(=O)C(=O)Nc2cccc(C)c2C)Sc2ccccc2N1`, for which the EC50 was over 331 µM and the IC50 was over 331 µM. With `C=C(C)COC(=O)COCC(=O)OCC(=C)C`, the EC50 is over 200 µM and the half-inhibitory concentration (IC50) is over 200 µM. Take `CCOC(=O)/C=C\c1c(Cl)n(-c2ccccc2)c(=O)n(-c2ccccc2)c1=O`: the EC50 is over 200 µM and the IC50 is 31.6 µM. The matching figures for `C[N+](C)=c1ccc2nc3c(ccc4ccccc43)oc-2c1`: over 60.3 µM and 8.32 µM. The like results for `Nc1nc(CC2(O)CCCCC2)cc(-c2ccccc2)n1` were, in that order, over 1.95 µM and over 1.95 µM. The like results for `Cc1cc(S(=O)(=O)Nc2nc(N)n(-c3ccccn3)n2)c(S)cc1Cl` were, in that order, 115 µM and over 200 µM. With `CCN(CC)CCNc1ccc(CO)c2oc3ccccc3c(=O)c12`, the EC50 was over 363 µM and the half-inhibitory concentration (IC50) was found to be 2.4 µM. With `Nc1ncnc2c1ncn2CC1OCC(CO)O1` (stereo not drawn), the EC50 was over 3090 µM; the IC50 is 2750 µM and 2340 µM. Take `N#Cc1c(NC(=O)C(F)(F)F)sc2c3c(=O)c4ccccc4c(=O)c=3oc3ccccc3c12`: the EC50 was over 100 µM and the concentration for half-maximal inhibition (IC50) was found to be 17.4 µM. Regarding `COc1ccc(-n2c(=O)n(-c3ccccc3)c(=O)n2-c2ccc(OC)cc2)cc1`, the EC50 is over 200 µM and the IC50 was over 200 µM. On to `CCCCC1(N=[N+]=[N-])C(=O)C2C=CC=C3c4ccccc4N(C1=O)C32` (stereo not drawn), for which the outcome was inactive.

As for `c1cc2c(cnc3cscc32)s1`, the outcome was inactive. In the case of `CNC(=O)N(CCC#N)CCCN(C(=O)NC)c1ccccc1`, the EC50 is over 200 µM and the IC50 is over 200 µM. For the molecule `CC1=CCCC(C)C1(C)CC/C(C)=C/CC/C(C)=C/CS(=O)(=O)CCN=C(N)N` (stereo not drawn), the EC50 was over 61.7 µM and the IC50 came out at 10.7 µM. The like results for `CN(C)c1ccc(/C=N/NS(=O)(=O)c2ccc(N)cc2)cc1` were, in that order, over 214 µM and over 214 µM.

Take `CCOCN1C(=O)C2CC(/C=C/C(=O)OC)=CN2C(=O)c2ccccc21` (stereo not drawn): the outcome was inactive. Still for that read-out and setting: the value for `COc1cc2c(cc1OC)CC(=O)Nc1cc(OC)c(OC)cc1CC2` was “inactive”.

Usually EC50 stands for the midpoint of the concentration-response curve. What is called IC50 is the midpoint of a concentration-inhibition curve. Low readings indicate higher potency, high ones lower potency.
